Assay results reported in patent publication US7049133B2, “Regulation of gene expression through manipulation of mRNA splicing and its uses” (Yissum Research Development Company of the Hebrew …, priority 1998, dated 2006).
Where two headings read alike, the source gives them in different places.

Experiments:
[1] = test system: splicing of TNF-α precursor transcripts; assay: RNase protection analysis of TNF-α precursor transcripts and spliced mRNA in transfected BHK-21 cells; format: cell-based, hamster
Procedure: (§1) BHK-21 cells were grown in DMEM medium supplemented with 2 mM glutamine, 40 mM NaHCO3, 10 mM Hepes, pH 7.3, […] of penicillin and streptomycin, […] nystatin and 10% fetal calf serum. 2-AP (Sigma) was added at 10 mM unless otherwise indicated. To prepare a stock solution of 0.15 M, 2-AP was dissolved in phosphate-buffered saline by heating at 70° C. for 10 min.
(§2) In the experiments of FIGS. 2 and 3, monolayers of BHK-21 cells were seeded at a density of 1−2×10^6 cells/8-cm Petri dish and grown overnight; 4 h before cotransfection, culture medium was replaced. A mixture of […] of test DNA construct and 4 mg salmon sperm DNA carrier, and, when included, 2 mg pSV2CAT DNA [47], was permeated into cells by the calcium phosphate-DNA coprecipitation technique. After 12–18 h, culture medium was replaced with fresh medium prewarmed to 37° C. In the experiments of FIGS. 6 and 7, LipofectAmine (Life Technologies) was employed following instructions of the supplier, using 1 mg of each DNA for transfection.
(§3) For RNase protection analysis, DNA was subcloned in pBS (Stratagene) under the T3 or T7 promoter and transcribed using [a-^32P]UTP to generate labeled anti-sense RNA transcripts. A TNF-α RNA probe (map: FIG. 2A) was generated from a 821-bp EcoRI-Sau3AI fragment containing the 5′-flank, 151 -bp 5′-UTR, and first 6 codons. A second TNF-α RNA probe was generated from a 823-bp EcoRI-EcoRI 3′-UTR fragment from which a 5′-terminal fragment was removed by BstEII digestion, leaving 83 3′-terminal bp of the 3′-UTR and 250 bp beyond the 3′ cleavage site (map: FIG. 2A). A third TNF-α RNA probe (map: FIG. 2B) was generated from a 700-bp Sau3AI-Sau3AI fragment consisting of 10 bp of intron 2, exon 3, intron 3 and part of exon 4. A TNF-β probe was generated from a 637-bp Bsu36I-EcoRI DNA fragment, containing part of intron 3 and 571 bp of exon 4 (map: FIG. 3A). A second TNF-β RNA probe (map: FIG. 3B) was generated from a 324-bp EcoRI-Bsu36I DNA fragment, containing part of exon 1, exon 2, exon 3 and a portion of intron 3. A probe of 250-nt, generated from a HindIII-EcoRI fragment of the coding region of the CAT gene, was used to quantitate CAT mRNA. Intactness of RNA probes was assessed by polyacrylamide gel electrophoresis.
(§4) Total RNA was isolated using guanidinium isothiocyanate/CsC1. RNase protection analysis with RNases A and T1 was performed using genomic TNF-α and TNF-β riboprobes and CAT or actin probes as described. Protected RNA fragments were separated by electrophoresis in 5% polyacrylamide/8 M urea gels. Size markers in FIG. 3 were generated by MspI digestion of pGEM-3 DNA and filling in with [a-^32P]dCTP [12]. Size marker in FIG. 7 is a 100-bp DNA ladder (Fermentas) that was dephosphorylated and 5′ end-labeled with [γ-^32P]ATP.

[2] = test system: splicing of TNF-β precursor transcripts; assay: RNase protection analysis of TNF-β precursor transcripts and spliced RNA in transfected BHK-21 cells; format: cell-based, hamster
Procedure: as §1, §2, §3, §4

CAT mRNA = assay: RNase protection analysis of CAT mRNA in transfected BHK-21 cells; format: cell-based
Procedure: as §1, §2
as §3, with “A second TNF-β RNA probe (map: FIG. 3B) was generated from a 324-bp EcoRI-Bsu36I DNA fragment, containing part of exon 1, exon 2, exon 3 and a portion of intron 3.” left out, “electrophoresis. […]” for “electrophoresis.”

PKR = molecular target: T1, PKR (Oryctolagus cuniculus, UniProt A0A0U2KCE0); assay: Phosphorylation of PKR and eIF2α in ribosome fraction from rabbit reticulocyte lysate; format: biochemical
T1 construct: phosphorylation of the PKR (68 kDa) and eIF2α (38 kDa) bands in the ribosome fraction of rabbit reticulocyte lysate; from tissue; host or cells: ribosome fraction of rabbit reticulocyte lysate
T1 sequence (A0A0U2KCE0 1-547): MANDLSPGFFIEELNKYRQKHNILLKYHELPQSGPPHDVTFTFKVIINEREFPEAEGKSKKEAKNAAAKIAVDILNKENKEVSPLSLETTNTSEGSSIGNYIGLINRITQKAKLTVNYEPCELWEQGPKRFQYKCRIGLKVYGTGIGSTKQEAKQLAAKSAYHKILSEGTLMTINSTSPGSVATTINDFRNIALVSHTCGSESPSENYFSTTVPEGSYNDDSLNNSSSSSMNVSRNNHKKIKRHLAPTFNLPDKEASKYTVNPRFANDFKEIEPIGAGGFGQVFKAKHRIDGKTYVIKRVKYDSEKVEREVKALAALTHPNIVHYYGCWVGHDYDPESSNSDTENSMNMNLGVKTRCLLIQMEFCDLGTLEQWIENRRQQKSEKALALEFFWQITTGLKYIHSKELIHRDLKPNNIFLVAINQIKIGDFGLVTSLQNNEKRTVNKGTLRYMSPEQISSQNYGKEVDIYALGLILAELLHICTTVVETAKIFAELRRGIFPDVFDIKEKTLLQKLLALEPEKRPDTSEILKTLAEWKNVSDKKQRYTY
From the text: A 823-bp EcoRI-EcoRI TNF-α gene fragment comprised of 573 3′-terminal bp of the 3′-UTR, the polyadenylation site and downstream sequences from pTNF-α was inserted into pBS under the T7 promoter. To obtain 3′-UTR sense transcripts, the DNA was digested with PstI (EP), NcoI (EN), AflIII (EA), SspI (ES) or XmnI (EX) and then transcribed in vitro. A 616-bp NcoI-EcoRI TNF-α gene fragment comprised of 366 3′-terminal bp of the 3′-UTR, the polyadenylation site and downstream sequences from pTNF-α was inserted into pBS under the T7 promoter. To obtain 3′-UTR sense transcripts, the DNA was digested with AflIII (NA) or XmnI (NX) and then transcribed in vitro. A 572-bp EcoRI-PstI TNF-β gene fragment comprised of 389 3′-terminal bp of the 3′-UTR, the polyadenylation site and downstream sequences from pTNF-β was inserted into pBS under the T7 promoter. To obtain 3′-UTR sense transcript, the DNA was digested with PstI and then transcribed in vitro. EP RNA transcript was purified by agarose gel electrophoresis, followed by chromatography on CF-11 cellulose, washing with ethanol and eluting with water as described. Phosphorylation of PKR and eIF2α chain was assayed by incubating polyI:polyC or 3′-UTR transcript with the ribosome fraction from rabbit reticulocyte lysate in the presence of [γ-^32P]ATP for 20 min at 30° C. as described and subjecting the reaction mixture to electrophoresis in 10% polyacryamide gels containing sodium dodecyl sulfate.

BHK-21 cells = format: cell-based, baby hamster
Procedure: as §1, §2

[3] = test system: primary human lymphoid cells; conditions: cited from earlier work
[4] = pTNF-α(3′UTR-β), 2-AP from 16 h
[5] = pTNF-α, 2-AP 10 mM from 18 h after transfection
[6] = pTNF-β(3′UTR-α), 2-AP in presence of CHX
[7] = pTNF-β(3′UTR-α), intron 3/exon 4 probe, 2-AP from 16 h

Nc1ncc2[nH]cnc2n1 [2-AP, 2-Aminopurine]
mRNA ([1]; pTNF-α(3′UTR-αEP), 2-AP added at 20 h): decline
Rise in precursor transcripts ([1]; pTNF-α(3′UTR-αEP), 2-AP added at 20 h, at 53 h): up to 36 fold
Expression of spliced mRNA (341-nt band) [1, 4]: failed to decline
Precursor transcripts (700 nt) [1, 4]: nor did precursor transcripts (700 nt) increase
Accumulation of precursor transcripts ([1]; pTNF-α(Δ3′UTR), 2-AP 10 mM): nor was there any enhanced accumulation
Expression of mRNA ([1]; pTNF-α(Δ3′UTR), 2-AP 10 mM): no longer inhibited
Expression of TNF-α RNA transcripts ([1]; pTNF-α, 2-AP 2 mM from time of transfection): reduction
Expression of TNF-α RNA transcripts ([1]; pTNF-α, 2-AP 6 mM from time of transfection): full inhibition
Expression of spliced TNF-α mRNA (341-nt band) [1, 5]: strongly inhibited
TNF-α precursor transcripts (700-nt band) [1, 5]: enhanced accumulation
Sensitivity of splicing of TNF-β precursor transcripts carrying an inverted TNF-α3′-UTR sequence, compared with TNF-β(3′UTR-α) transcripts [2]: as sensitive
Generation of spliced RNA [2, 6]: inhibited
Precursor transcripts [2, 6]: increased
Precursor transcripts [2, 7]: strong increase
Spliced RNA [2, 7]: concomitant decline
Spliced mRNA versus precursor transcripts ([2]; pTNF-β(3′UTR-αEP), 2-AP added at 20 h): pronounced shift from spliced mRNA to precursor transcripts
Expression of spliced TNF-β RNA ([2]; pTNF-β(Δ3′UTR)): insensitive
Spliced RNA (214-nt band) and precursor transcripts ([2]; pTNF-β, exon 1-3/intron 3 probe, 2-AP from 12 h): decrease
TNF-β precursor transcripts (637 nt) and mRNA (571 nt) ([2]; pTNF-β, intron 3/exon 4 probe, 2-AP from 12 h): precursors and mRNA both declined
Expression of CAT mRNA carrying TNF-α3′-UTR portion (CAT mRNA; p5′CAT(3′UTR-α)): unaffected
Expression of CAT mRNA (CAT mRNA; p5′CAT, 10 mM 2-AP): proceeded unabated
Expression of a cotransfected CAT gene (CAT mRNA; pSV2CAT cotransfected with pTNF-α, 2-AP 10 mM): not affected
Sensitivity of PKR activation by 3′UTR-αEP RNA to 2-AP, compared with activation by dsRNA (PKR; 1 mM 2-AP): less sensitive
Phosphorylation of PKR and eIF2α driven by purified 3′UTR-αEP RNA (PKR; 1 and 5 mM of 2-AP): inhibited progressively
Cell viability (BHK-21 cells; FIG. 2 experiments, 2-AP up to 10 mM): remained constant
Cell viability (BHK-21 cells; FIG. 3 experiments, 2-AP and CHX present): remained constant
TNF-β precursor transcripts and spliced mRNA ([3]; lymphoid cells, increasing doses): coordinate decline
Expression of TNF-α mRNA ([3]; primary human lymphoid cells): blocks expression

C[C@@H]1C[C@@H]([C@H](O)CC2CC(=O)NC(=O)C2)C(=O)[C@@H](C)C1 [CHX]
Expression of both precursor transcripts and spliced RNA ([2]; pTNF-β(3′UTR-α), CHX from 16 h): enhanced expression

B1: 3′UTR-αEP RNA: T7 RNA transcript of the 104-bp EcoRI-PstI fragment of the human TNF-α3′-UTR (2-APRE, SEQ ID NO:1) (nucleic acid, listed as Homo sapiens)
chain: GAATTCAAACTGGGGCCTCCAGAACTCACTGGGGCCTACAGCTTTGATCCCTGACATCTGGAATCTGGAGACCAGGGAGCCTTTGGTTCTGGCCAGAATGCTGC
modifications: RNA, all phosphodiester, T or U not given here
Induced phosphorylation of PKR and eIF2α, dependence on RNA concentration (PKR): at low but not high RNA concentrations
Activation of PKR, judged by phosphorylation of PKR (68 kDa) and eIF2α (38 kDa) bands (PKR; RNA 0.05 ng/ml, compared with dsRNA): activated PKR even more strongly than dsRNA
Molar specific activity as inducer of PKR phosphorylation (PKR; each TNF RNA at 0.05 ng/ml): highest molar specific activity
